Measured values: publication PMC5681660, “Reduced hepatitis B and D viral entry using clinically applied drugs as novel inhibitors of the bile acid transporter NTCP” (Scientific Reports, 2017)
Where a name gives a salt, the structure may show the parent alone. Read-outs that look alike come from different tables or passages of the source.

Legend:
human NTCP [1] = target: T1, human NTCP (Homo sapiens, UniProt Q14973); test: Screening fluorescent competitive Myrcludex B-FITC binding assay (96-well, 10 µM drug)
T1 sequence (Q14973 1-349): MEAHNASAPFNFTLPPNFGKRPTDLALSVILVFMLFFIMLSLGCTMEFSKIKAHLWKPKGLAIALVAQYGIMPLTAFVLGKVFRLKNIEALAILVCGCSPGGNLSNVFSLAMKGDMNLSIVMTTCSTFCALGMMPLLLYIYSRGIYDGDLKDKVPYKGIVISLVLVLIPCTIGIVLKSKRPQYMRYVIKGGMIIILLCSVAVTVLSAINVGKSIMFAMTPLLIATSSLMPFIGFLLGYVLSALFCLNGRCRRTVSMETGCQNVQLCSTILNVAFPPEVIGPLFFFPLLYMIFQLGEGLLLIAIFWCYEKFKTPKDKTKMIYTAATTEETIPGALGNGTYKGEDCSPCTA

human NTCP [2] = target: T1, human NTCP; test: Screening taurocholate uptake assay (96-well, [14C]taurocholate, 10 µM drug)
[3] = screen, 10 µM drug, Myrcludex B-FITC binding
[4] = combined ranking from functional and binding screening assays
[5] = screen, 10 µM drug, taurocholate uptake
[6] = Prestwick library screen, 10 µM drug, B-score of Myrcludex B-FITC binding
[7] = Prestwick library screen, 10 µM drug, B-score of taurocholate uptake
[8] = combined ranking from functional and binding assay B-scores
[9] = Prestwick library screen, Myrcludex B-FITC binding, 10 µM drug
[10] = Prestwick library screen, taurocholate uptake, 10 µM drug
[11] = ranking score beside the functional and binding assay B-scores of the screen

SMILES | B-score binding assay (human NTCP [1]; [3]) | Ranking score (human NTCP [2]; [4]) | B-score functional assay (human NTCP [2]; [5]) | also measured
O=c1oc2ccccc2c(O)c1Cc1c(O)c2ccccc2oc1=O [Dicumarol] | 1.31 | 403.485 | -1.792 | 
O=c1[nH]cnc2c1ncn2[C@H]1CC[C@@H](CO)O1 [Didanosine] |  |  |  | B-score binding assay (human NTCP [1]; [6]): 1.663; B-score functional assay (human NTCP [2]; [7]): 0.086; Ranking score (human NTCP [2]; [8]): 927.069
C/C=C(/C(=C/C)c1ccc(O)cc1)c1ccc(O)cc1 [Dienestrol] | -0.567 | 419.874 | -0.196 | 
CCN(CC)C(=O)N1CCN(C)CC1 [Diethylcarbamazine citrate] |  |  |  | B-score binding assay (human NTCP [1]; [9]): -0.121; B-score functional assay (human NTCP [2]; [10]): 0.671; Ranking score (human NTCP [2]; [11]): 718.594
CC(=O)OCC(=O)[C@@]1(OC(C)=O)[C@@H](C)C[C@H]2[C@@H]3C[C@H](F)C4=CC(=O)C=C[C@]4(C)[C@@]3(F)[C@@H](O)C[C@@]21C [Diflorasone Diacetate] | -1.118 | 327.658 | -0.194 | 
C[C@]12CC[C@H](O)C[C@H]1CC[C@@H]1[C@@H]2CC[C@]2(C)[C@@H](C3=CC(=O)OC3)CC[C@]12O [Digitoxigenin] | 1.274 | 348.633 | -2.282 | 
C[C@]12CC[C@H](O)C[C@H]1CC[C@@H]1[C@@H]2C[C@@H](O)[C@]2(C)[C@@H](C3=CC(=O)OC3)CC[C@]12O [Digoxigenin] | -1.199 | 283.718 | -0.468 | 
C[C@H]1O[C@@H](O[C@H]2[C@@H](O)C[C@H](O[C@H]3[C@@H](O)C[C@H](O[C@H]4CC[C@@]5(C)[C@H](CC[C@@H]6[C@@H]5C[C@@H](O)[C@]5(C)[C@@H](C7=CC(=O)OC7)CC[C@]65O)C4)O[C@@H]3C)O[C@@H]2C)C[C@H](O)[C@@H]1O [Digoxin] | 2.8 | 426.002 | -1.822 | 
CN1C[C@H](C(=O)N[C@]2(C)O[C@@]3(O)[C@@H]4CCCN4C(=O)[C@H](Cc4ccccc4)N3C2=O)C[C@@H]2c3cccc4[nH]cc(c34)C[C@H]21.CN1C[C@H](C(=O)N[C@]2(C)O[C@@]3(O)[C@@H]4CCCN4C(=O)[C@H](Cc4ccccc4)N3C2=O)C[C@@H]2c3cccc4[nH]cc(c34)C[C@H]21.O=C(O)C(O)C(O)C(=O)O [Dihydroergotamine tartrate] | -1.57 | 379.284 | 0.679 | 
COc1ccc([C@@H]2Sc3ccccc3N(CCN(C)C)C(=O)[C@@H]2OC(C)=O)cc1 [Diltiazem hydrochloride] | -0.608 | 351.949 | -0.552 | 
CN(C)CCCSC(=N)N.Cl.Cl [Dimaprit dihydrochloride] |  |  |  | B-score binding assay (human NTCP [1]; [6]): 1.724; B-score functional assay (human NTCP [2]; [7]): 0.472; Ranking score (human NTCP [2]; [8]): 1022.56
CC1(C)OC(=O)NC1=O [Dimethadione] | -1.829 | 328.253 | 0.349 | 
COc1ccc(C(=O)c2ccccc2O)c(O)c1 [Dioxybenzone] | -0.95 | 401.91 | 0.002 | 
O=C(Nc1ccccc1)OCC(CN1CCCCC1)OC(=O)Nc1ccccc1 (stereo not drawn) [Diperodon hydrochloride] |  |  |  | B-score binding assay (human NTCP [1]; [9]): 0.002; B-score functional assay (human NTCP [2]; [10]): 0.512; Ranking score (human NTCP [2]; [11]): 772.884
OC(CCCN1CCCCC1)(c1ccccc1)c1ccccc1 [Diphenidol hydrochloride] | 0.054 | 367.214 | -1.4 | 
Cn1c(=O)c2c(ncn2CC(O)CO)n(C)c1=O (stereo not drawn) [Diprophylline] |  |  |  | B-score binding assay (human NTCP [1]; [9]): 1.219; B-score functional assay (human NTCP [2]; [10]): -0.019; Ranking score (human NTCP [2]; [11]): 816.025
OCCN(CCO)c1nc(N2CCCCC2)c2nc(N(CCO)CCO)nc(N3CCCCC3)c2n1 [Dipyridamole] | -0.011 | 317.643 | -1.651 | 
Cc1c(N(C)CS(=O)(=O)[O-])c(=O)n(-c2ccccc2)n1C.[Na+] [Dipyrone] | -0.963 | 355.307 | -0.152 | 
CC[C@H]1OC(=O)[C@H](C)[C@@H](O[C@H]2C[C@@](C)(OC)[C@@H](O)[C@H](C)O2)[C@H](C)[C@@H](O[C@@H]2O[C@H](C)C[C@H](N(C)C)[C@H]2O)[C@](C)(O)C[C@@H](C)[C@@H]2N[C@@H](COCCOC)O[C@H]([C@H]2C)[C@]1(C)O [Dirithromycin] |  |  |  | B-score binding assay (human NTCP [1]; [6]): 0.123; B-score functional assay (human NTCP [2]; [7]): 1.532; Ranking score (human NTCP [2]; [8]): 934.441
CC(C)N(CCC(C(N)=O)(c1ccccc1)c1ccccn1)C(C)C (stereo not drawn) [Disopyramide] |  |  |  | B-score binding assay (human NTCP [1]; [6]): 2.245; B-score functional assay (human NTCP [2]; [7]): 0.051; Ranking score (human NTCP [2]; [8]): 925.407

SMILES | B-score binding assay (human NTCP [1]; [3]) | Ranking score (human NTCP [2]; [4]) | B-score functional assay (human NTCP [2]; [5]) | also measured
CC(CCc1ccc(O)cc1)NCCc1ccc(O)c(O)c1 (stereo not drawn) [Dobutamine hydrochloride] |  |  |  | B-score binding assay (human NTCP [1]; [9]): 1.051; B-score functional assay (human NTCP [2]; [10]): -0.038; Ranking score (human NTCP [2]; [11]): 789.916
NCCc1ccc(O)c(O)c1 [Dopamine hydrochloride] |  |  |  | B-score binding assay (human NTCP [1]; [9]): 1.493; B-score functional assay (human NTCP [2]; [10]): -0.07; Ranking score (human NTCP [2]; [11]): 802.566
CCN[C@H]1C[C@H](C)S(=O)(=O)c2sc(S(N)(=O)=O)cc21 [Dorzolamide hydrochloride] | -0.624 | 369.324 | -0.44 | 
CN(C)CC/C=C1\c2ccccc2CSc2ccccc21 [Dosulepin hydrochloride] | 0.311 | 296.985 | -2.363 | 
CCN1CC(CCN2CCOCC2)C(c2ccccc2)(c2ccccc2)C1=O.Cl (stereo not drawn) [Doxapram hydrochloride] | -1.194 | 446.058 | 0.629 | 
COc1cc2nc(N3CCN(C(=O)C4COc5ccccc5O4)CC3)nc(N)c2cc1OC (stereo not drawn) [Doxazosin mesylate] |  |  |  | B-score binding assay (human NTCP [1]): 0.211; B-score functional assay (human NTCP [2]): -0.292; Ranking score (human NTCP [2]): 599.787
CN(C)CCC=C1c2ccccc2COc2ccccc21 [Doxepin hydrochloride] | 0.002 | 385.759 | -1.158 | 
Cn1c(=O)c2c(ncn2CC2OCCO2)n(C)c1=O [Doxofylline] |  |  |  | B-score binding assay (human NTCP [1]; [6]): 0.388; B-score functional assay (human NTCP [2]; [7]): 3.316; Ranking score (human NTCP [2]; [8]): 1049.35
COc1cccc2c1C(=O)c1c(O)c3c(c(O)c1C2=O)C[C@@](O)(C(=O)CO)C[C@@H]3O[C@H]1C[C@H](N)[C@H](O)[C@H](C)O1 [Doxorubicin hydrochloride] |  |  |  | B-score binding assay (human NTCP [1]): -0.177; B-score functional assay (human NTCP [2]): 0.02; Ranking score (human NTCP [2]): 577.781
C[C@H]1c2cccc(O)c2C(=O)C2=C(O)[C@]3(O)C(=O)C(C(N)=O)=C(O)[C@@H](N(C)C)[C@@H]3[C@@H](O)[C@@H]21 [Doxycycline hydrochloride] | -1.041 | 380.385 | -0.015 | 
CN(C)CCOC(C)(c1ccccc1)c1ccccn1 (stereo not drawn) [Doxylamine succinate] | -1.318 | 393.435 | 0.231 | 
O=C(CCCN1CC=C(n2c(=O)[nH]c3ccccc32)CC1)c1ccc(F)cc1 [Droperidol] |  |  |  | B-score binding assay (human NTCP [1]; [9]): 0.092; B-score functional assay (human NTCP [2]; [10]): 0.035; Ranking score (human NTCP [2]; [11]): 713.526
CC[N+](C)(C)c1cccc(O)c1 [Edrophonium chloride] | 0.083 | 420.888 | -1.061 | 
CCOC(=O)[C@H](CCc1ccccc1)N[C@@H](C)C(=O)N1CCC[C@H]1C(=O)O [Enalapril maleate] |  |  |  | B-score binding assay (human NTCP [1]; [9]): 0.03; B-score functional assay (human NTCP [2]; [10]): 0.08; Ranking score (human NTCP [2]; [11]): 705.002
C[C@H](N[C@@H](CCc1ccccc1)C(=O)O)C(=O)N1CCC[C@H]1C(=O)O.O.O [Enalaprilat dihydrate] |  |  |  | B-score binding assay (human NTCP [1]; [9]): 0.874; B-score functional assay (human NTCP [2]; [10]): 0.051; Ranking score (human NTCP [2]; [11]): 844.248
CCn1cc(C(=O)O)c(=O)c2cc(F)c(N3CCNCC3)nc21 [Enoxacin] |  |  |  | B-score binding assay (human NTCP [1]; [6]): 0.523; B-score functional assay (human NTCP [2]; [7]): 3.277; Ranking score (human NTCP [2]; [8]): 1072.03
CCN1CCN(c2cc3c(cc2F)c(=O)c(C(=O)O)cn3C2CC2)CC1 [Enrofloxacin] |  |  |  | B-score binding assay (human NTCP [1]; [9]): 0.083; B-score functional assay (human NTCP [2]; [10]): 0.028; Ranking score (human NTCP [2]; [11]): 706.109
CCN(CC)C(=O)/C(C#N)=C/c1cc(O)c(O)c([N+](=O)[O-])c1 [Entacapone] | -0.647 | 366.148 | -0.441 | 
C[C@]12CC[C@H](O)C[C@@H]1CC[C@@H]1[C@@H]2CC[C@]2(C)C(=O)CC[C@@H]12 [Epiandrosterone] |  |  |  | B-score binding assay (human NTCP [1]): 2.961; B-score functional assay (human NTCP [2]): 2.177; Ranking score (human NTCP [2]): 1232.82
COc1cccc2c1C(=O)c1c(O)c3c(c(O)c1C2=O)C[C@@](O)(C(=O)CO)C[C@@H]3O[C@H]1C[C@H](N)[C@@H](O)[C@H](C)O1 [Epirubicin hydrochloride] |  |  |  | B-score binding assay (human NTCP [1]): 1.555; B-score functional assay (human NTCP [2]): 0.079; Ranking score (human NTCP [2]): 915.844
